Test results as given in US11230530B2, “Human plasma kallikrein inhibitors” (BioCryst Pharmaceuticals, Inc., priority 2014, dated 2022).
pKi: −log10 of the molar value.

Experiments:
[1] = molecular target: human plasma kallikrein (Homo sapiens (Human), UniProt P03952); assay: Plasma kallikrein activity assay (chromogenic substrate S2302); format: biochemical; details: 2 nM kallikrein, 80 μM S2302, 30° C., pH 7.8; Cheng-Prusoff; reported as ranges
Experimental: Plasma kallikrein activity assay. The effect of compounds of the invention on human plasma kallikrein activity was determined using the chromogenic substrates (DiaPharma Group, Inc., West Chester, Ohio, USA). In these experiments, 2 nM kallikrein (Enzyme Research Laboratories, South Bend, Ind., USA) was incubated with 80 μM S2302 (H-D-Pro-Phe-Arg-p-nitroaniline) in the absence or presence of increasing concentrations of compounds of the invention in a final volume of 200 μL Tris-HCl buffer (200 mM NaCl; 2.5 mM CaCl2; 50 mM Tris-HCl, pH 7.8).
Data were analyzed using SigmaPlot software (Systat Software, Inc., San Jose, Calif., USA) (Four Parameter Logistic Curve).

[2] = test system: patients with hereditary angioedema (HAE); details: in vivo; cited from earlier work

human plasma kallikrein, sequence (P03952 whole entry, looked up): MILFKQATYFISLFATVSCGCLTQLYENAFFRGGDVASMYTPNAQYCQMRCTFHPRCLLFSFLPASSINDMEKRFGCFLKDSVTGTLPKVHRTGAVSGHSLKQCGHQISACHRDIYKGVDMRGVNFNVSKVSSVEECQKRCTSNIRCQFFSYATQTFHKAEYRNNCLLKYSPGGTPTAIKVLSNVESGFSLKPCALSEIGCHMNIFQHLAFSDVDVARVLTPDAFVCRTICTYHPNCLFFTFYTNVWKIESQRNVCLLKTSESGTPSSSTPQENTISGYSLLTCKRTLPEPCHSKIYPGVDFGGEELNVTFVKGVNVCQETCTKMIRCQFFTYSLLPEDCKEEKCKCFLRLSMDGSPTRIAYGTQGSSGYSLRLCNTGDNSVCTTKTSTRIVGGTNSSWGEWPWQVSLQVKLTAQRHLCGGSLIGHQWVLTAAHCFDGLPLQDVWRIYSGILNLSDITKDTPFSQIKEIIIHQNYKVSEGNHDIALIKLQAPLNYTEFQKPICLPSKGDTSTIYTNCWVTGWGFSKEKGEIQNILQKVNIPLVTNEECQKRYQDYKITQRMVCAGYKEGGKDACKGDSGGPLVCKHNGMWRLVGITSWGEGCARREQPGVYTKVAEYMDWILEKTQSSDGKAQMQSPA
human plasma kallikrein, sequence (P03952 whole entry partner, looked up): as the sequence (P03952 whole entry, looked up) above

Row | SMILES | pKi [1] | treating HAE [2]
1 | Cc1cc(C(=O)Nc2cccc(C(NCC3CC3)c3cc(O)ccc3O)c2)n(-c2cccc(CN)c2)n1 (centres unmarked) [Compound 146g, 1-(3-(Aminomethyl)phenyl)-N-(3-((cyclopropylmethylamino)(2,5-dihydroxyphenyl)methyl)phenyl)-3-methyl-1H-pyrazole-5-carboxamide] | 7.30 to 10.00 | 
2 | NC(N)=NCCC[C@@H](N)C(=O)N[C@@H](CCCN=C(N)N)C(=O)N1CCC[C@H]1C(=O)N1C[C@H](O)C[C@H]1C(=O)NCC(=O)N[C@@H](Cc1cccs1)C(=O)N[C@@H](CO)C(=O)N1Cc2ccccc2C[C@@H]1C(=O)N1[C@H](C(=O)N[C@@H](CCCN=C(N)N)C(=O)O)C[C@@H]2CCCC[C@@H]21 [Icatibant] |  | effective
